From patent publication US20230070861A1, “COMPOSITIONS AND METHODS FOR TREATING HEPATITIS B” (priority 2019, published 2023)

System: HBV
Assay: HBV markers in HBV-infected primary human hepatocyte (PHH) co-culture
Type: cell-based
Method: A system comprising HBV-infected primary human hepatocytes (PHHs) was established by persistent HBV infection for over 30 days in a self-assembling, primary hepatocyte co-culture system (FIG. 12A). To generate the co-cultures system, primary human hepatocytes (PHH) (BioIVT) were plated at 350 k cells per well in a Collagen-Type I coated 24-well plate (Corning, 354408), and incubated at 37° C., 5% C02 to generate an adherent cell monolayer. 4 hrs post plating, plated hepatocytes were washed with CP medium (BioIVT) to remove any unadhered cells. 3T3-J2 murine embryonic fibroblasts (Kerafast (distributed from Howard Green (Harvard), Boston) were seeded at a ratio of 95% hepatocyte:5% fibroblast per well and cultured at 37° C., 5% C02 for an additional 12 hours to form co-cultures. Culture medium was replaced every 2 days (500 μL per well) for continued maintenance. Shown in FIG. 12C are images of transduced primary hepatocytes from two human hepatocyte donors, isolated from two different human livers. They were isolated, cryopreserved, and distributed for sale for research purposes by BioIVT (Maryland, US).
On the second day, post hepatocyte co-culture formation, lentivirus was added at an MOI 500 dropwise into culture medium per well. Co-cultures were transduced for 16 hours, prior to changing media for fresh CP medium (BioIVT). Culture medium was replaced every 2 days (500 μL per well) for continued maintenance. Protein expression occurs over 7 days period in hepatic co-cultures. At day 7 post transduction, co-cultures were transfected using lipofection based reagents co-formulated with gRNA and base-editor mRNA. Cells were lysed and harvested for gDNA 48 hours post transfection. FIG. 12B provides a timeline of the in vitro transduction schedule in either hepatocyte monolayers or hepatocyte co-cultures showing representative time points. Importantly, PHH cultures not treated with polyethylene glycol (PEG) during infection tend to have very low percentages of HBV infected PHH cells.
The infected cells, as gauged by HBV markers, respond to treatment as expected. […] The amounts of extracellular HBV DNA detected in the treated PHH cultures were similar to the amount observed in negative control cell cultures.
The experiments employed the approach using the HBV-infected PHH culture system and transfection of the PHH with components (base editors) of the base editor system as depicted in FIG. 19. Primary hepatocytes (PHH) co-cultures were infected with HBV in order to test antiviral efficacy of the base editors. The base editing reagents or components (base editor mRNA and synthetic gRNA) were transfected via lipofection twice over the course of two weeks. The first transfection was performed 3 days after infection to allow for complete formation of viral covalently closed circular DNA (cccDNA) at the time of the transfection. Extracellular parameters (HBsAg, HBeAg, and HBV DNA) were monitored over the course of the experiment and intracellular parameters (HBV DNA, viral RNA, and editing) were monitored at the end of the experiment. Briefly, on Day 0, PHH were infected with HBV (MOI=500). On Day 3 after HBV infection, the cells were transfected with base editing components, e.g., a BE and gRNA, or control(s). On Day 10, PHHs were subjected to another round of transfection. At the termination of the experiment, e.g., Day 17 or longer, e.g., Day 25, the PHH were lysed and extracellular amounts of HBsAg, HBeAg and HBV DNA were assessed. Also assessed were intracellular amounts of HBV DNA, viral RNA and the efficacy of base editing by the components of the base editor system versus control(s). Transfection details: RNA format, 800 ng total RNA per well in a 24 well plate (600 ng base editor+200 ng gRNA) transfected via lipofection (lipofectamin messengerMax, Thermofisher Scientific) according to the vendor's protocol. […]

[1] = 14-day PHH co-culture experiment, FIG. 20

Compound | HBV DNA [1] | HBsAg [1] | pgRNA [1] | extracellular HBV DNA (compared to untreated HBV infected control cells, by day 7 post infection, FIG. 13B) | HBV surface antigen (HBsAg) (relative to negative controls, FIG. 13C) | intracellular HBV DNA (relative to negative controls, FIG. 13D) | total HBV RNA (relative to negative controls, FIG. 13E) | pre-genomic RNA (pgRNA) (relative to negative controls, FIG. 13F)
C=C1[C@H](CO)[C@@H](O)C[C@@H]1n1cnc2c(=O)[nH]c(N)nc21 [entecavir] | reduces | does not influence | does not influence |  |  |  |  | 
C[C@H](Cn1cnc2c(N)ncnc21)OCP(=O)(O)O [tenofovir] |  |  |  | significantly reduced | lower levels | lower levels | lower levels | lower levels
